Read-outs that look alike come from different tables or passages of the source.
Legend:
[1] = Photoisomerization: photostationary states by 1H NMR, switching cycles by UV-vis; assay type: physicochemical
Procedure: Tweezer constructs were synthesized as an E/Z mixture, with a strong preference for the thermodynamically stable E isomer. For photoisomerization, UV-vis spectra of TWAAP and TWAB (50 μM in water) were recorded in their initial state. The constructs were then isomerized to the Z isomer with UV light (λ = 365 nm, 1 min) and back to the E isomer with green light (λ = 520 nm, 5 min). Two light sources were used: UV LED HighPower-LED with 3 W of λ = 365 nm (LED Engin Inc., San Jose, California, US) and a LSC-G HighPower-LED with 3 W of λ = 520 nm (Cree Inc., Durham, North Carolina, US). UV-vis spectroscopy was routinely employed to analyze the tweezer constructs, serving as the method of choice to monitor configurational integrity after multiple switching cycles. More than 10 switching cycles were performed without any loss of configurational integrity. The UV-vis spectra were recorded with a JASCO V-650 double-beam spectrophotometer (JASCO).
The photophysical properties of AAP tweezers TWAAP0-4 as well as those of AZO tweezers TWAB1-2 were consistent with previous reports on these photoswitches. […] The two isomers are easily distinguished by the significant difference in their absorption bands (Fig. 2 and Fig. S4a, b). […] Irradiation with green light further increases the concentration of the E isomer, as confirmed by both UV/vis and NMR spectra. The switching process can be repeated for over 10 cycles without loss of configurational integrity or photodegradation of the tweezer. […] (Fig. 2 and Table S1).
Supplementary Table S1. Photostationary states (PSSE→Z and PSSZ→E) and half-life of Z isomers of
respectively. n.d., not determinable.
TW construct PSSE→Z [%] PSSZ→E [%] […]

wildtype Taspase 1 = biological target: T1, wildtype Taspase 1 (Homo sapiens, UniProt Q9H6P5); experiment: Recombinant cleavage assay with GST-MLL2700–2850-GFP-His substrate; assay type: biochemical; conditions: for IC50: ligand conc. 10 - 100 µM, 200 nM Taspase 1, 5 µM substrate, n = 3, read-out: IC50 TW (recombinant cleavage, full-length protein)
T1 sequence (Q9H6P5 1-233 limits assumed): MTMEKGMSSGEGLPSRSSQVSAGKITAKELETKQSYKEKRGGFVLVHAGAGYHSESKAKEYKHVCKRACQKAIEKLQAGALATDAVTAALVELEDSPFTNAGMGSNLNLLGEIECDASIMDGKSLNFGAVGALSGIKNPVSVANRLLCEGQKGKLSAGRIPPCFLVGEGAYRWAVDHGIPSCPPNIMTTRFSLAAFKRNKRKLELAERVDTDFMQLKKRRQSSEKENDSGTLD
T1 sequence (Q9H6P5 234-420 limits assumed): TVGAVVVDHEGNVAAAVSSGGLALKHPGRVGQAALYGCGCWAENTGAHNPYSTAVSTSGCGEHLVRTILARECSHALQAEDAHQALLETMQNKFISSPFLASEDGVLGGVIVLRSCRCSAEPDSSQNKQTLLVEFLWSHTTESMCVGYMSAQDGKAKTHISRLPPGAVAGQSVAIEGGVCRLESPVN
Procedure: The recombinant cleavage assay employing the recombinant fusion protein GST-MLL2700–2850-GFP-His, which contains the CS2 cleavage site of the Mixed-lineage leukemia (MLL) protein as a substrate for Taspase 1, was performed as described.[9,10]
Given that Taspase 1's active site is positioned directly at the base of the loop harboring the bipartite NLS (Fig. 1A, and Fig. S1), it is reasonable to expect that our photoswitchable tweezer constructs, which recognize this signal, might also influence proteolytic activity - similar to the inhibition observed with our “first-generation” multivalent ligands.[10] In principle the presence of a sterically demanding artificial ligand may hinder or even completely block substrate binding and subsequent cleavage. To assess this, we employed a well-established in vitro cleavage assay using a recombinant, truncated fusion protein harboring the second cleavage site (CS2) of the Mixed Lineage Leukemia 1 (MLL1) protein, a bona fide Taspase 1 substrate.[39] In this assay, the cleaved and uncleaved substrate fractions of the GST-MLL2700–2850-GFP-His substrate were separated on a Coomassie-stained gel, and signal intensities of the different cleavage bands were quantified (Fig. 7, Fig. S8, and Fig. S9). The addition of recombinant, proteolytically active Taspase 1 (200 nM) led to efficient substrate cleavage, which was inhibited by all photoswitchable tweezer constructs in a concentration-dependent manner. IC50 values for the full series of switchable tweezer constructs ranged from 20 to 50 μM, with measurements taken separately for both E and Z isomers Fig. (S9).
Fig. 7 Switchable tweezer constructs interfere with Taspase 1 proteolytic activity. Cleavage assay utilizing the cleavage site CS2 from the natural substrate MLL (GST-MLL2700–2850-GFP-His) and active wildtype Taspase 1. Inhibition of proteolysis was evaluated by the relative amount of uncleaved substrate. Briefly, 5 μM recombinant substrate were incubated with 200 nM wildtype Taspase 1-His and increasing concentrations of TWAAP0-4 (10 - 100 μM), pre-irradiated with either UV light (365 nm, violet), or green light (520 nm, green), or solvent only. Proteolytic activity in solvent-treated samples was set to 100%, and data from TWAAP-treated samples were normalized accordingly. IC50 values were determined by densitometric quantification of the cleavage bands from the gels shown in Fig. S9, followed by nonlinear curve fitting. These values were also used to generate the summary bar plots shown on the right. Data are shown as the mean ± SD from three independent experiments. Composed with https://BioRender.com.
Figure S8. Photoswitchable TWAAP constructs interfere with Taspase 1’s proteolytic activity.
Cleavage assay utilizing the cleavage site CS2 from the natural substrate MLL (GST -MLL2700-2850-GFP-His, 70 kDa) and active wildtype Taspase 1. Inhibition of proteolysis was evaluated by the relative amount of uncleaved in relation to cleaved substrate (50 kDa and 20 kDa, respectively). Briefly, 5 µM recombinant substrate were incubated with 200 nM wildtype Taspase 1-His and increasing concentrations (10 - 100 µM) of indicated TWAAP irradiated with UV (365 nm, left gel panels) or green light (520 nm, right gel panels). Solvent-treated samples (referred to as untreated, un.) served as reference, and as additional controls, Taspase 1 (-T) was omitted or only Taspase 1 (TASP1) was applied. Representative images of three independent experiments are shown. Composed with […]
Figure S9. Photoswitchable TWAAB constructs interfere with Taspase 1’s proteolytic activity. Cleavage assay utilizing the cleavage site CS2 from the natural substrate MLL (GST -MLL2700-2850-GFP-His, 70 kDa) and active wildtype Taspase 1. Inhibition of proteolysis was evaluated by the relative amount of uncleaved in relation to cleaved substrate (50 kDa and 20 kDa, respectively).
Briefly, 5 µM recombinant substrate were incubated with 200 nM wildtype Taspase 1-His and […]

## O=P(O)(O)Oc1c2c(c(OP(=O)(O)OCCn3cc(COCc4ccc(N=Nc5ccc(COCc6cn(CCOP(=O)(O)Oc7c8c(c(OP(=O)(O)O)c9c7C7CC9c9cc%10c(cc97)C7CC%10c9ccccc97)C7CC8c8cc9c(cc87)C7CC9c8ccccc87)nn6)cc5)cc4)nn3)c3c1C1CC3c3cc4c(cc31)C1CC4c3ccccc31)C1CC2c2cc3c(cc21)C1CC3c2ccccc21 [TWAB2]
[1]; UV 365 nm
  PSS E→Z, photostationary state: 59%
[1]; green light 520 nm
  PSS Z→E, photostationary state: 56%
Wildtype Taspase 1; E isomer
  IC50: 22.3 µM
Wildtype Taspase 1; Z isomer
  IC50: 24.9 µM
Wildtype Taspase 1; particularly at 50 μM
  Difference in inhibitory activity between E and Z isomers (times greater potency of E isomer): no difference

Source: article PMC12419465, “Photoresponsive molecular tweezers modulate Taspase 1 activity” (RSC Chemical Biology, 2025)
